Consider 22 compounds from patent publication US20260070902A1, “SULFONYL DERIVATIVES AS CCR6 INHIBITORS” (Hoffmann-La Roche Inc., priority 2022, published 2026).

The structures appear in SMILES notation.

One may read the IC50 as the concentration that inhibits the measured activity by half. A lower IC50 goes with inhibition by little substance.

The target in this experiment is T1, human CCR6 (Homo sapiens, UniProt P51684).
T1 sequence (P51684 1-374): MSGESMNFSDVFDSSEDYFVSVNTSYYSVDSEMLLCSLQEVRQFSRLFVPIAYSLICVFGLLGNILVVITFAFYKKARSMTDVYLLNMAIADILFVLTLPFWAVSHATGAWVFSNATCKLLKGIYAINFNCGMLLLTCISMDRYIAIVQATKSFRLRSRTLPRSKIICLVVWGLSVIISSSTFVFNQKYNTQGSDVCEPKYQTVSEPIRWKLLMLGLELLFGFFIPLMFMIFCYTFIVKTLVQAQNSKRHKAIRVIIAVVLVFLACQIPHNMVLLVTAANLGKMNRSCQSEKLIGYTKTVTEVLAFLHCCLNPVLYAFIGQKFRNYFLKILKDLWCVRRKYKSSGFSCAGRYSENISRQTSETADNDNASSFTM
Briefly: Human CCR6-CRE reporter assay. Type of experiment: cell-based. Also on record: The second construct contained the open reading frame of human CCR6 in the pUNO1 backbone; host or cells: 293FT cells. The following applies: relative -Log IC50; 293FT cells transfected with human CCR6 and CRE-luciferase reporter; 6 μM Forskolin, 6 nM CCL20; 5 h. As for the experimental part: Human CCR6-CRE Reporter Assay
293FT cells were transfected with 2 constructs using TransIT-293 (Mirus). The first construct (pGL4.29, Promega) expressed the luciferase reporter gene luc2P in response to the binding of cAMP-induced CREB to the CREelement in its promoter. The second construct contained the open reading frame of human CCR6 in the pUNO1 backbone under the control of an enhanced CMV promoter (InVivoGen). 48 h after transfection, cells were harvested and diluted to 750,000 cells/ml in culture medium (DMEM, 10% FBS, 1× pen/strep (Gibco 15140)). Compounds were 2.5-fold serially diluted in DMSO. Further dilutions were made in assay medium (DMEM, 10% FBS, 1× pen/strep, 6 μM Forskolin, 6 nM CCL20). 4 μl of the compound solution was added to a white MW384 plate, followed by 20 μl of the cell suspension. Final DMSO concentration in the assay was 0.1%. The MW384 plate was placed in an incubator at 37° C., 5% CO2 for 5 h. Luciferase activity was determined by addition of 24 μl of a 2.5× diluted BriteLite luciferase solution (Perkin Elmer), followed by luminescence measurement using a VICTOR Plate reader (Perkin Elmer). […] The relative −Log IC50 was determined with GraphPad Prism 9 using a four-parameter dose-response model.
(A reporter such as luciferase makes a cellular process visible.)
`N#Cc1cnc2ccc(-c3ccc(S(=O)(=O)N4CCC(Nc5ccc(S(F)(F)(F)(F)F)cc5)CC4)nc3)cn12` [Example 78, 6-{6-[(4-{[4-(pentafluoro-λ^6-sulfanyl)phenyl]Amino}piperidin-1-yl)sulfonyl]pyridin-3-yl}imidazo[1,2-a]pyridine-3-carbonitrile] showed an IC50 of 1580 nM. This counts as single-digit micromolar. In turn, `O=S(=O)(c1ccc(-c2ccc3nccn3c2)cc1Cl)N1CCC(Nc2ccc(S(F)(F)(F)(F)F)cc2)CC1` [Example 79, 1-(2-chloro-4-{imidazo[1,2-a]pyridin-6-yl}benzenesulfonyl)-N-[4-(pentafluoro-λ^6-sulfanyl)phenyl]piperidin-4-amine] showed an IC50 of 1580 nM.

Turning to `N#Cc1cnc2ccc(-c3ccc(S(=O)(=O)N4CCC(Nc5ccc(S(F)(F)(F)(F)F)cc5)CC4)c(Cl)c3)cn12` [Example 80, 6-{3-chloro-4-[(4-{[4-(pentafluoro-λ^6-sulfanyl)phenyl]Amino}piperidin-1-yl)sulfonyl]phenyl}imidazo[1,2-a]pyridine-3-carbonitrile], the IC50 is 2000 nM. Regarding `N=S(=O)(c1ccc(-c2ccc3nccn3c2)cc1)[C@H]1CC[C@@H](Nc2ccc(S(F)(F)(F)(F)F)cc2)CC1` (stereo partly drawn) [Example 88, (4-{imidazo[1,2-a]pyridin-6-yl}phenyl)[cis-4-{[4-(pentafluoro-λ^6-sulfanyl)phenyl]Amino}cyclohexyl](imino)-λ^6-sulfanone], 794 nM corresponded to half-maximal inhibition (IC50). This IC50 lies about 2.5-fold lower than the previous one. In turn, `N=S(=O)(c1ccc(-c2ccn3ccnc3c2)cc1)[C@H]1CC[C@H](Nc2ccc(S(F)(F)(F)(F)F)cc2)CC1` (stereo partly drawn) [Example 93, (4-{imidazo[1,2-a]pyridin-7-yl}phenyl)[trans-4-{[4-(pentafluoro-λ^6-sulfanyl)phenyl]Amino}cyclohexyl](imino)-λ^6-sulfanone] had an IC50 of 398 nM. On to `N=S(=O)(c1ccc(-c2ccn3ncnc3c2)cc1)[C@H]1CC[C@H](Nc2ccc(S(F)(F)(F)(F)F)cc2)CC1` (stereo partly drawn) [Example 94, [trans-4-{[4-(pentafluoro-λ^6-sulfanyl)phenyl]Amino}cyclohexyl](4-{[1,2,4]triazolo[1,5-a]pyridin-7-yl}phenyl)(imino)-λ^6-sulfanone], for which the IC50 is 501 nM.

With `CN(C)C(=O)c1cccc(-c2ccc(S(=N)(=O)[C@H]3CC[C@H](Nc4ccc(S(F)(F)(F)(F)F)cc4)CC3)cc2)c1` (stereo partly drawn) [Example 97, N,N-dimethyl-4′-{[trans-4-{[4-(pentafluoro-λ^6-sulfanyl)phenyl]Amino}cyclohexyl]sulfonimidoyl}-[1,1′-biphenyl]-3-carboxamide], half-maximal inhibition (IC50) was put at 1000 nM. In turn, `CN(C)C(=O)c1ccc(-c2ccc(S(=N)(=O)[C@H]3CC[C@H](Nc4ccc(S(F)(F)(F)(F)F)cc4)CC3)cc2)cn1` (stereo partly drawn) [Example 100, N,N-dimethyl-5-(4-{[trans-4-{[4-(pentafluoro-λ^6-sulfanyl)phenyl]Amino}cyclohexyl]sulfonimidoyl}phenyl)pyridine-2-carboxamide] gave an IC50 of 794 nM. The compound `Cc1cn2cc(-c3ccc(S(=N)(=O)[C@H]4CC[C@H](Nc5ccc(S(F)(F)(F)(F)F)cc5)CC4)cc3)ncc2n1` (stereo partly drawn) [Example 103, (4-{2-methylimidazo[1,2-a]pyrazin-6-yl}phenyl)[trans-4-{[4-(pentafluoro-λ^6-sulfanyl)phenyl]Amino}cyclohexyl](imino)-λ^6-sulfanone] had an IC50 of 1260 nM. Then `Cc1nnc2cc(-c3ccc(S(=N)(=O)[C@H]4CC[C@H](Nc5ccc(S(F)(F)(F)(F)F)cc5)CC4)cc3)ccn12` (stereo partly drawn) [Example 104, (4-{3-methyl-[1,2,4]triazolo[4,3-a]pyridin-7-yl}phenyl)[trans-4-{[4-(pentafluoro-λ^6-sulfanyl)phenyl]Amino}cyclohexyl](imino)-λ^6-sulfanone], with 398 nM; and `CN(C)C(=O)c1ccc(-c2ccc(S(=N)(=O)[C@H]3CC[C@H](Nc4ccc(S(F)(F)(F)(F)F)cc4)CC3)cc2)nc1` (stereo partly drawn) [Example 106, N,N-dimethyl-6-(4-{[trans-4-{[4-(pentafluoro-λ^6-sulfanyl)phenyl]Amino}cyclohexyl]sulfonimidoyl}phenyl)pyridine-3-carboxamide], with 1580 nM. With `CNC(=O)c1ccc(-c2ccc(S(=N)(=O)[C@H]3CC[C@H](Nc4ccc(S(F)(F)(F)(F)F)cc4)CC3)cc2)nc1` (stereo partly drawn) [Example 107, N-methyl-6-(4-{[trans-4-{[4-(pentafluoro-λ^6-sulfanyl)phenyl]Amino}cyclohexyl]sulfonimidoyl}phenyl)pyridine-3-carboxamide], the IC50 is 1580 nM. `N=S(=O)(c1ccc(-c2ccc(C(N)=O)nc2)cc1)[C@H]1CC[C@H](Nc2ccc(S(F)(F)(F)(F)F)cc2)CC1` (stereo partly drawn) [Example 108, 5-(4-{[trans-4-{[4-(pentafluoro-λ^6-sulfanyl)phenyl]Amino}cyclohexyl]sulfonimidoyl}phenyl)pyridine-2-carboxamide] gave an IC50 of 501 nM. As for `CN(C)C(=O)c1cc(-c2ccc(S(=N)(=O)[C@H]3CC[C@H](Nc4ccc(S(F)(F)(F)(F)F)cc4)CC3)cc2)ccn1` (stereo partly drawn) [Example 109, N,N-dimethyl-4-(4-{[trans-4-{[4-(pentafluoro-λ^6-sulfanyl)phenyl]Amino}cyclohexyl]sulfonimidoyl}phenyl)pyridine-2-carboxamide], the figure is 2000 nM.

As for `CNC(=O)c1cc(-c2ccc(S(=N)(=O)[C@H]3CC[C@H](Nc4ccc(S(F)(F)(F)(F)F)cc4)CC3)cc2)ccn1` (stereo partly drawn) [Example 110, N-methyl-4-(4-{[trans-4-{[4-(pentafluoro-λ^6-sulfanyl)phenyl]Amino}cyclohexyl]sulfonimidoyl}phenyl)pyridine-2-carboxamide], the IC50 was 316 nM. Turning to `N=S(=O)(c1ccc(-c2ccc(C(N)=O)cn2)cc1)[C@H]1CC[C@H](Nc2ccc(S(F)(F)(F)(F)F)cc2)CC1` (stereo partly drawn) [Example 111, 6-(4-{[trans-4-{[4-(pentafluoro-λ^6-sulfanyl)phenyl]Amino}cyclohexyl]sulfonimidoyl}phenyl)pyridine-3-carboxamide], half-maximal inhibition (IC50) required 1000 nM. Consider `N=S(=O)(c1ccc(-c2ccc3c(c2)CNC3=O)cc1)[C@H]1CC[C@H](Nc2ccc(S(F)(F)(F)(F)F)cc2)CC1` (stereo partly drawn) [Example 112, 5-(4-{[trans-4-{[4-(pentafluoro-λ^6-sulfanyl)phenyl]Amino}cyclohexyl]sulfonimidoyl}phenyl)-2,3-dihydro-1H-isoindol-1-one], for which half-maximal inhibition (IC50) was put at 398 nM. Against the preceding compound, the IC50 is about 2.5-fold lower. Turning to `N=S(=O)(c1ccc(-c2ccc3c(c2)CCNC3=O)cc1)[C@H]1CC[C@H](Nc2ccc(S(F)(F)(F)(F)F)cc2)CC1` (stereo partly drawn) [Example 113, 6-(4-{[trans-4-{[4-(pentafluoro-λ^6-sulfanyl)phenyl]Amino}cyclohexyl]sulfonimidoyl}phenyl)-1,2,3,4-tetrahydroisoquinolin-1-one], the IC50 is 316 nM. Compound `N=S(=O)(c1ccc(-c2ccc3c(c2)C(=O)NCC3)cc1)[C@H]1CC[C@H](Nc2ccc(S(F)(F)(F)(F)F)cc2)CC1` (stereo partly drawn) [Example 114, 7-(4-{[trans-4-{[4-(pentafluoro-λ^6-sulfanyl)phenyl]Amino}cyclohexyl]sulfonimidoyl}phenyl)-1,2,3,4-tetrahydroisoquinolin-1-one] gave a half-inhibitory concentration (IC50) of 398 nM. In turn, `N=S(=O)(c1ccc(-c2ccc3c(c2)C(=O)NC3)cc1)[C@H]1CC[C@H](Nc2ccc(S(F)(F)(F)(F)F)cc2)CC1` (stereo partly drawn) [Example 115, 6-(4-{[trans-4-{[4-(pentafluoro-λ^6-sulfanyl)phenyl]Amino}cyclohexyl]sulfonimidoyl}phenyl)-2,3-dihydro-1H-isoindol-1-one] gave an IC50 of 398 nM. Then `N=S(=O)(c1ccc(-c2ccc3c(c2)CC(=O)N3)cc1)[C@H]1CC[C@H](Nc2ccc(S(F)(F)(F)(F)F)cc2)CC1` (stereo partly drawn) [Example 116, 5-(4-{[trans-4-{[4-(pentafluoro-λ^6-sulfanyl)phenyl]Amino}cyclohexyl]sulfonimidoyl}phenyl)-2,3-dihydro-1H-indol-2-one], with 200 nM; and `N=S(=O)(c1ccc(-c2ccc3c(c2)NC(=O)C3)cc1)[C@H]1CC[C@H](Nc2ccc(S(F)(F)(F)(F)F)cc2)CC1` (stereo partly drawn) [Example 117, 6-(4-{[trans-4-{[4-(pentafluoro-λ^6-sulfanyl)phenyl]Amino}cyclohexyl]sulfonimidoyl}phenyl)-2,3-dihydro-1H-indol-2-one], with 251 nM.
